Measurements published in patent US20260125374A1, “PI3K-ALPHA INHIBITORS AND METHODS OF MAKING AND USING THE SAME” (Relay Therapeutics, Inc., priority 2021, published 2026).
“Also recorded” adds a separate entry of the source. Marks after values point to notes of the source that are not given here.

Experiments:
Format in all cases: physicochemical
[1] = Investigation of I-3 Form A in different humidity (VH-XRPD, humidity chamber); details: for form after humidity chamber (XRPD): 1 week
Description: According to the DVS result of I-3 Form A, two hydrate forms (a mono-hydrate, and a bis-hydrate) may exist when relative humidity is above 50% RH. Variable humidity XRPD (VH-XRPD) was investigated attempting to capture the potential hydrate(s).
To further evaluate form conversion of I-3 Form A, this salt was placed in different humidity (30% RH, 40% RH and 50% RH) chambers for 1 week.
I-3 Form A was used as starting material. One RH cycle was applied at 25° C. XRPD analysis was carried out in each specific relative humidity. Cycle: 39% RH (initial)-10% RH (2h)-40% RH (2h)-50% RH (2h)-70% RH (2h). Meanwhile, I-3 Form A was exposed to 30% RH, 40% RH and 50% RH chamber for 1 week. Samples were analyzed by XRPD using air tight container.

[2] = Solution stability at 25° C.; details: for Chemical purity / Chiral purity / racemization in solution / chemical stability in solution: 25° C.; for Initial chiral purity: before dissolution; for racemization in solution / chemical stability in solution: methanol and THF/ACN (2:1, v/v), 4 mg/mL; for chemical stability in solution: at least 24 h
Description: Solution stability of I-1 Form A and I-3 Form A was investigated in methanol and THF/ACN (2:1, v/v) at 25° C. Target concentration is 4 mg/mL.
Accurate 4 mg of I-1 Form A, 5.13 mg of I-3 Form A was weighed into a 8 mL glass vial, respectively. The salt amount used is equivalent to 4 mg anhydrous free form.

[3] = Stability of III-1 & I-1 solid; details: after 55 days; initial 99.2%
[4] = Investigation of factors impacting racemization
Text: Therefore, the factors impacting racemization were investigated including pH, temperature, molecular sieve and experimental duration. […] It is worth noted that racemization can be accelerated when solvents are pretreated by molecular sieve, since the pH value is shifted to basic after pretreatment.
During DSC test for I-1 Form A, different heating rates result in different thermal events. To investigate whether racemization occurs during heating, I-1 Form A was heated to different temperatures then obtained solids were tested by SFC.

[5] = Stability of I-1 solution during concentration (pH, temperature; chiral purity); details: for ee % before concentration: starting value before stirring; for ee % of the product after stirring: from 98.20%
Description: To study the chiral stability of product I-1 during concentration, three batches I-1 from Prep-HPLC was tried under different conditions: 1) The ee % of the product changes from 98.20% to 78.95% after stirring over 18 h at 45-50° C. with pH 6-7. 2) The ee % of the product changes from 98.20% to 97.64% after stirring over 18 h at 20-25° C. with pH 6-7. 3) The ee % of the product changes from 98.20% to 98.15% after stirring over 18 h at 45-50° C. with pH 5-6.
Two reactions at 0.5 g I-1 (after SFC preparation) were carried out for stability study. 1) Compound is stable after stirring over 20 h at 10-20° C. with pH 4. 2) The ee % of this compound change from 98.43% to 98.16% after stirring over 20 h at 40-50° C. with pH 4.

[6] = MeOH, 0 h, listed as I-3 Form A
[7] = MeOH, 6 h, listed as I-3 Form A
[8] = MeOH, 24 h, listed as I-3 Form A
[9] = THF/ACN(2:1, v/v), 0 h, listed as I-3 Form A
[10] = THF/ACN(2:1, v/v), 6 h, listed as I-3 Form A
[11] = THF/ACN(2:1, v/v), 24 h, listed as I-3 Form A
[12] = after heating to 260° C. at 2° C./min by DSC
[13] = after heating to 300° C. at 2° C./min by DSC
[14] = MeOH, 0 h, listed as I-1 Form A
[15] = MeOH, 6 h, listed as I-1 Form A
[16] = MeOH, 24 h, listed as I-1 Form A
[17] = THF/ACN(2:1, v/v), 0 h, listed as I-1 Form A
[18] = THF/ACN(2:1, v/v), 6 h, listed as I-1 Form A
[19] = THF/ACN(2:1, v/v), 24 h, listed as I-1 Form A

N#Cc1c(-c2cc(NC(=O)c3cc(F)cc(C(F)(F)F)c3)c3c(c2)C(=O)N[C@H]3c2cc(F)ccc2Cl)ccc2ncnn12 [Compound I-3]
form after humidity chamber (XRPD) ([1]; 30% RH): additional peaks belongs to Form B | form after humidity chamber (XRPD) ([1]; 40% RH and 50% RH): converted to I-3 Form B | I-3 Form B pattern in VH-XRPD ([1]; 50% RH, 25° C.): started to show up | form by VH-XRPD ([1]; 70% RH, 25° C.): fully converted to a new form, I-3 Form B | XRPD ([1]; Chamber, 25° C., 30% RH (1 week), air tight container for XRPD): I-3 Form A + 2Theta 17.5° | XRPD ([1]; Chamber, 25° C., 40% RH (1 week), air tight container for XRPD): I-3 Form B | XRPD ([1]; Chamber, 25° C., 50% RH (1 week), air tight container for XRPD): I-3 Form B | XRPD ([1]; VH-XRPD, 25° C., 10% RH (2 h)): I-3 Form A | XRPD ([1]; VH-XRPD, 25° C., 39% RH (initial)): I-3 Form A | XRPD ([1]; VH-XRPD, 25° C., 40% RH (2 h)): I-3 Form A | XRPD ([1]; VH-XRPD, 25° C., 50% RH (2 h)): I-3 Form A + 2Theta 17.3° | XRPD ([1]; VH-XRPD, 25° C., 70% RH (2 h)): I-3 Form B | Chemical purity [2, 6]: 99.3% | Chiral purity [2, 6]: 98.3% | Chemical purity [2, 7]: 99.3% | Chiral purity [2, 7]: 98.3% | Chemical purity [2, 8]: 99.4% | Chiral purity [2, 8]: 98.3% | Chemical purity [2, 9]: 99.2% | Chiral purity [2, 9]: 98.3% | Chemical purity [2, 10]: 99.3% | Chiral purity [2, 10]: 98.3% | Chemical purity [2, 11]: 99.4% | Chiral purity [2, 11]: 98.3% | Initial chiral purity ([2]; listed as I-3 Form A): Initial chiral purity: 98.6% | racemization in solution [2]: no racemization | chemical stability in solution ([2]; listed as I-3 Form A): chemically stable; also recorded: good solution stability

N#Cc1c(-c2cc(NC(=O)c3cc(F)cc(C(F)(F)F)c3)c3c(c2)C(=O)N[C@H]3c2cc(F)ccc2Cl)ccc2ncnn12 [Compound I-1, (R)-N-(3-(2-chloro-5-fluorophenyl)-6-(5-cyano-[1,2,4]triazolo[1,5-a]pyridin-6-yl)-1-oxoisoindolin-4-yl)-3-fluoro-5-(trifluoromethyl)benzamide]
purity of solid after storage [3]: 99.2% | ee %(SFC) ([4]; Batch #1 as received, SFC after preparation for 12 h): ee % (SFC): 97.7%#; | ee %(SFC) ([4]; Batch #1 as received, SFC immediately after preparation): ee % (SFC): 100.0%* | XRPD [4, 12]: XRPD: low crystallinity | ee %(SFC) [4, 12]: ee % (SFC): 88.1%* | ee %(SFC) ([4]; after heating to 270° C. at 2° C./min by DSC): ee % (SFC): 10.9%* | XRPD [4, 13]: XRPD: amorphous form | ee %(SFC) [4, 13]: ee % (SFC): 2.2%* | racemization during heating (DSC, solids tested by SFC) ([4]; certain high temperatures): racemization indeed occurred | racemization in different solvents ([4]; sped up by basic pH, high temperature, longer time, exposure to light): racemization easily occurs | Purity ([5]; 10-20° C. MeOH, 1N HCl, pH 4, stir for 20 h): 99.54% | ee % ([5]; 10-20° C. MeOH, 1N HCl, pH 4, stir for 20 h, start ee 98.43%): 98.39% | Purity ([5]; 10-20° C. MeOH, 1N HCl, pH 4, stir for 68 h): 99.53% | ee % ([5]; 10-20° C. MeOH, 1N HCl, pH 4, stir for 68 h, start ee 98.43%): 98.27% | ee % ([5]; 20-25° C. MeOH, pH 6-7, stir for 18 h, start ee 98.20%): 97.64% | Purity ([5]; 40-50° C. MeOH, 1N HCl, pH 4, stir for 4 h): 99.51% | Purity ([5]; 40-50° C. MeOH, 1N HCl, pH 4, stir for 20 h): 99.37% | ee % ([5]; 40-50° C. MeOH, 1N HCl, pH 4, stir for 20 h, start ee 98.43%): 98.16% | ee % ([5]; 40-50° C. MeOH, 1N HCl, pH 4, stir for 68 h, start ee 98.43%): 97.92% | purity and chiral purity change in solution ([5]; 40˜50° C. stirring for 68 h): slight degrade | ee % ([5]; 45-50° C. MeOH, 1N HCl, pH 5-6, stir for 18 h, start ee 98.20%): 98.15% | ee % ([5]; 45-50° C. MeOH, pH 6-7, stir for 18 h, start ee 98.20%): 78.95% | ee % before concentration ([5]; I-1 after SFC preparation): ee % 98.43% | ee % before concentration ([5]; I-1 from Prep-HPLC): ee % 98.20% | stability of compound I-1 solution ([5]; dependence on pH): stable when pH at 4˜5 | ee % of the product after stirring ([5]; over 18 h at 20-25° C. with pH 6-7): 97.64% | ee % of the product after stirring ([5]; over 18 h at 45-50° C. with pH 5-6): 98.15% | ee % of the product after stirring ([5]; over 18 h at 45-50° C. with pH 6-7): 78.95% | stability after stirring ([5]; over 20 h at 10-20° C. with pH 4): stable | ee % after stirring ([5]; over 20 h at 40-50° C. with pH 4, from 98.43%): 98.16% | Chemical purity [2, 14]: 98.9% | Chiral purity [2, 14]: 98.9% | Chemical purity [2, 15]: 99.0% | Chiral purity [2, 15]: 98.9% | Chemical purity [2, 16]: 99.1% | Chiral purity [2, 16]: 98.9% | Chemical purity [2, 17]: 98.6% | Chiral purity [2, 17]: 98.9% | Chemical purity [2, 18]: 98.7% | Chiral purity [2, 18]: 98.9% | Chemical purity [2, 19]: 99.0% | Chiral purity [2, 19]: 98.9% | Initial chiral purity ([2]; listed as I-1 Form A): Initial chiral purity: 99.0% | racemization in solution [2]: no racemization | chemical stability in solution ([2]; listed as I-1 Form A): chemically stable
